Experimental findings from patent publication US20240228491A1, “METHIONINE ADENOSYLTRANSFERASE INHIBITOR, PREPARATION METHOD THEREFOR AND APPLICATION THEREOF” (SCINNOHUB PHARMACEUTICAL CO., LTD., priority 2021, published 2024) are described below.

Like-named read-outs stand apart in the source and are kept apart here.

Series [1] in a line: In vivo pharmacokinetic study in ICR mice. To be noted: plasma; for AUC(0-t): read-out: Area under curve AUC(0-t); for Cmax: read-out: Maximal concentration Cmax. The protocol:
Species: ICR mice, SPF grade. Source: Shanghai Xipuer-Bikai Laboratory Animal Co., Ltd. Number: 3 mice per dosage form.
2.1 An appropriate amount of the test sample was accurately weighed, into which 5% DMSO, 10% polyethylene glycol-15 hydroxystearate, 85% normal saline (all in volume percent) were added sequentially, and were fully mixed via vortex or ultrasound, to obtain the dosing solution with a test sample concentration of 0.4 mg/mL for intravenous administration.
2.2 An appropriate amount of the test sample was accurately weighed, into which 5% DMSO, 10% polyethylene glycol-15 hydroxystearate, 85% normal saline (all in volume percent) were added sequentially, and were fully mixed via vortex or ultrasound, to obtain the dosing solution with a test sample concentration of 1 mg/mL for oral gavage administration.
Weighing was performed before administration, and the administration amount was calculated according to the body weight. The drug was administered orally by gavage or intravenously.
Before and 0.083 h, 0.25 h, 0.5 h, 1 h, 2 h, 4 h, 6 h, 8 h, 24 h after administration.
Blood was collected via submandibular vein or other suitable means, and approximately 0.03 mL per sample was collected via anticoagulation with heparin sodium. Blood samples were placed on ice after collection and centrifuged to separate plasma within 1 h (centrifugation conditions: centrifugal force of 6800 g, 6 min, 2-8° C.). The collected plasma samples were stored in a −80° C. refrigerator before analysis, and the remaining plasma samples continued to be stored in a −80° C. refrigerator for temporary storage after analysis.
When plot the plasma concentration-time curve according to the detected plasma concentration of the test substance, BLQ (Beneath Limit of Quantification) was recorded as 0. When calculating pharmacokinetic parameters, the concentration before administration was calculated as 0; BLQ (including “No peak”) before Cmax was calculated as 0; BLQ (including “No peak”) after Cmax was not involved in the calculation. Pharmacokinetic parameters, such as AUC(0-t), T1/2, Cmax, etc., were calculated by WinNonlin using the plasma concentration data at different time points.

The target in series [2] is MAT2a (Homo sapiens (Human), UniProt P31153). Kind of series: MAT2a enzymatic activity test (colorimetric assay). As to conditions: OD620, 150 min reaction, read-out: IC50 against MAT2a. Format: biochemical. In a few lines:
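MAT2a (20 μg/mL working solution) was preincubated 15 min with compound (10-point, 3-fold series from 1 or 10 μM) in Tris/KCl/MgCl2 buffer, pH 8.0. Reaction with 400 μM ATP and 600 μM L-methionine (substrate-mix concentrations) ran 150 min. Phosphate was detected by BIOMOL Green at OD620, with IC50 from log(inhibitor)-response fitting.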

Sequence of MAT2a (P31153 whole entry): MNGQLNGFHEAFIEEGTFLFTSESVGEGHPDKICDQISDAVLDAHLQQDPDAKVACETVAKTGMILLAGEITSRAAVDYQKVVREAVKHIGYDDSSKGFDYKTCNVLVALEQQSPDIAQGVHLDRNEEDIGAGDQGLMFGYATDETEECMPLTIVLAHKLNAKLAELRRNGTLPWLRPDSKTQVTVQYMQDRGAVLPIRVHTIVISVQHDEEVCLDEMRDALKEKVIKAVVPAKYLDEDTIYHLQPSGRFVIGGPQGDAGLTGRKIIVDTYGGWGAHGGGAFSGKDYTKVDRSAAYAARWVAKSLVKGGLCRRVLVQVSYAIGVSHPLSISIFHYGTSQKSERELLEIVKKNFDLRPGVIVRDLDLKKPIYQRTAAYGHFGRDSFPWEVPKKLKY

Usually AUC(0-t) stands for exposure summed from dosing to a finite time, without extrapolation to infinity. As usually defined, the IC50 is the midpoint of a concentration-inhibition curve. With `Nc1c(-c2ccc3nccnc3c2)c(=O)n(-c2ccc(Cl)cc2)c2nc(C(F)(F)F)ccc12` [Example 36], the “Apparent clearance rate Cl” value in series [1] (IV 2 mg/kg) turned out to be 0.0618 L/h/kg. Further, the AUC(0-t) in series [1] (mouse, IV 2 mg/kg) was determined as 31.7 µg·h/mL; in series [1] (mouse, PO 10 mg/kg), 211 µg·h/mL. The half-life in series [1] (mouse, IV 2 mg/kg, read-out: Half life T1/2 (converted)) is 5.53 h; in series [1] (mouse, PO 10 mg/kg, read-out: Half life t1/2 (converted)), 9.32 h. Further, the Cmax in series [1] (mouse, IV 2 mg/kg) was determined as 3.54 µg/mL; in series [1] (mouse, PO 10 mg/kg), 18.1 µg/mL. The bioavailability in series [1] (mouse, PO 10 mg/kg vs IV 2 mg/kg, read-out: Bioavailability F %) was 133%. In addition, the IC50 in series [2] was determined as 0.0136 µM.
